Measured values reported in PubChem BioAssay AID1963872 (Molecular Pharmacology Branch, DTP, NCI, 2024).

System: KRAS patient-derived spheroids with HUVEC/MSC, viability
Experiment: Anticancer human tumor 519858-162-T-J1-PDC patient-derived colon adenocarcinoma cell line growth inhibition [KRAS2]
Conditions: for viability, T/C: stronger effect = lower value
Method in brief: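 Combination screen of spheroid viability in tumor-cell co-cultures with endothelial (HUVEC) and mesenchymal stem cell stroma. Each agent was tested in half-log dilutions, topping at clinical Cmax or at 10 microM without a known Cmax.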

[1] = curve of first compound, second compound 0.1 µM
[2] = curve of first compound, second compound 0.316 µM
[3] = curve of first compound, second compound 1 µM
[4] = curve of first compound, second compound 3.16 µM
[5] = curve of first compound, second compound 10 µM
[6] = second compound 0.1 µM, first compound 0.000316 µM
[7] = second compound 0.1 µM, first compound 0.001 µM
[8] = second compound 0.1 µM, first compound 0.00316 µM
[9] = second compound 0.1 µM, first compound 0.01 µM
[10] = second compound 0.1 µM, first compound 0.0316 µM
[11] = second compound 0.1 µM, first compound 0.1 µM
[12] = second compound 0.316 µM, first compound 0.000316 µM
[13] = second compound 0.316 µM, first compound 0.001 µM
[14] = second compound 0.316 µM, first compound 0.00316 µM
[15] = second compound 0.316 µM, first compound 0.01 µM
[16] = second compound 0.316 µM, first compound 0.0316 µM
[17] = second compound 0.316 µM, first compound 0.1 µM
[18] = second compound 1 µM, first compound 0.000316 µM
[19] = second compound 1 µM, first compound 0.001 µM
[20] = second compound 1 µM, first compound 0.00316 µM
[21] = second compound 1 µM, first compound 0.01 µM
[22] = second compound 1 µM, first compound 0.0316 µM
[23] = second compound 1 µM, first compound 0.1 µM
[24] = second compound 3.16 µM, first compound 0.000316 µM
[25] = second compound 3.16 µM, first compound 0.001 µM
[26] = second compound 3.16 µM, first compound 0.00316 µM
[27] = second compound 3.16 µM, first compound 0.01 µM
[28] = second compound 3.16 µM, first compound 0.0316 µM
[29] = second compound 3.16 µM, first compound 0.1 µM
[30] = second compound 10 µM, first compound 0.000316 µM
[31] = second compound 10 µM, first compound 0.001 µM
[32] = second compound 10 µM, first compound 0.00316 µM
[33] = second compound 10 µM, first compound 0.01 µM
[34] = second compound 10 µM, first compound 0.0316 µM
[35] = second compound 10 µM, first compound 0.1 µM
[36] = second compound 0.1 µM, first compound 0.316 µM
[37] = second compound 0.1 µM, first compound 1 µM
[38] = second compound 0.1 µM, first compound 3.16 µM
[39] = second compound 0.1 µM, first compound 10 µM
[40] = second compound 0.316 µM, first compound 0.316 µM
[41] = second compound 0.316 µM, first compound 1 µM
[42] = second compound 0.316 µM, first compound 3.16 µM
[43] = second compound 0.316 µM, first compound 10 µM
[44] = second compound 1 µM, first compound 0.316 µM
[45] = second compound 1 µM, first compound 1 µM
[46] = second compound 1 µM, first compound 3.16 µM
[47] = second compound 1 µM, first compound 10 µM
[48] = second compound 3.16 µM, first compound 0.316 µM
[49] = second compound 3.16 µM, first compound 1 µM
[50] = second compound 3.16 µM, first compound 3.16 µM
[51] = second compound 3.16 µM, first compound 10 µM
[52] = second compound 10 µM, first compound 0.316 µM
[53] = second compound 10 µM, first compound 1 µM
[54] = second compound 10 µM, first compound 3.16 µM
[55] = second compound 10 µM, first compound 10 µM
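Note: compound exposure lasted seven days before readout.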
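Throughout, for viability, T/C: 100% = DMSO vehicle control viability.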

Row | SMILES | IC50 [1] [nM] | IC50 [2] [nM] | IC50 [3] [nM] | IC50 [4] [nM] | IC50 [5] [nM] | viability, T/C [6] [%] | viability, T/C [7] [%] | viability, T/C [8] [%] | viability, T/C [9] [%] | viability, T/C [10] [%] | viability, T/C [11] [%] | viability, T/C [12] [%] | viability, T/C [16] [%] | viability, T/C [17] [%] | viability, T/C [22] [%] | viability, T/C [23] [%] | viability, T/C [28] [%] | viability, T/C [29] [%] | viability, T/C [34] [%] | viability, T/C [35] [%] | further results
1 | Cn1ncnc1[C@H]1c2n[nH]c(=O)c3cc(F)cc(c23)N[C@@H]1c1ccc(F)cc1 + C=CC(=O)N1CCN(c2nc(=O)n(-c3c(C)ccnc3C(C)C)c3nc(-c4c(O)cccc4F)c(F)cc23)C(C)C1 | > 100 | > 100 | > 100 | > 100 | > 100 | 105 | 89.7 | 106 | 94.3 | 75.1 | 76.8 | 95.2 | 93 | 96.2 | 102 | 89.9 | 76.8 | 99.2 | 84.9 | 93.6 | viability, T/C [13]: 83.4%; viability, T/C [14]: 94.8%; viability, T/C [15]: 76%; viability, T/C [18]: 79.9%; viability, T/C [19]: 71.8%; viability, T/C [20]: 94.1%; viability, T/C [21]: 67.6%; viability, T/C [24]: 82%; viability, T/C [25]: 85.1%; viability, T/C [26]: 88.3%; viability, T/C [27]: 120%; viability, T/C [30]: 102%; viability, T/C [31]: 75.4%; viability, T/C [32]: 80.5%; viability, T/C [33]: 86.9%
2 | CC1(C)CCC(CN2CCN(c3ccc(C(=O)NS(=O)(=O)c4ccc(NCC5CCOCC5)c([N+](=O)[O-])c4)c(Oc4cnc5[nH]ccc5c4)c3)CC2)=C(c2ccc(Cl)cc2)C1 + COc1cc2nc(C)nc(NC(C)c3cc(N)cc(C(F)(F)F)c3)c2cc1OC1CCOC1 | > 10000 | > 10000 | 5240 | 6200 | 2660 | – | – | – | – | 105 | 85.7 | – | 116 | 92.4 | 73.7 | 79.9 | 63.5 | 63.3 | 82.1 | 60.9 | viability, T/C [36]: 74.5%; viability, T/C [37]: 82.5%; viability, T/C [38]: 73.6%; viability, T/C [39]: 101%; viability, T/C [40]: 92.3%; viability, T/C [41]: 78.9%; viability, T/C [42]: 76.5%; viability, T/C [43]: 52.5%; viability, T/C [44]: 98.9%; viability, T/C [45]: 80.5%; viability, T/C [46]: 66.8%; viability, T/C [47]: 28.6%; viability, T/C [48]: 82%; viability, T/C [49]: 69.5%; viability, T/C [50]: 73%; viability, T/C [51]: 35.8%; viability, T/C [52]: 92.9%; viability, T/C [53]: 78.6%; viability, T/C [54]: 45%; viability, T/C [55]: 37.8%
3 | CC(C)n1nc(-c2ccc3oc(N)nc3c2)c2c(N)ncnc21 + CC1OCC2(CCN(c3cnc(Sc4ccnc(N)c4Cl)c(N)n3)CC2)C1N | > 100 | > 100 | > 100 | > 100 | > 100 | 92.4 | 90.3 | 100 | 89.7 | 86.2 | 77 | 104 | 71.3 | 65.5 | 89.7 | 80.7 | 91.8 | 92.9 | 112 | 100 | viability, T/C [13]: 85.6%; viability, T/C [14]: 88.6%; viability, T/C [15]: 60.8%; viability, T/C [18]: 86.5%; viability, T/C [19]: 84.9%; viability, T/C [20]: 78%; viability, T/C [21]: 102%; viability, T/C [24]: 60.2%; viability, T/C [25]: 91.6%; viability, T/C [26]: 90.1%; viability, T/C [27]: 93.9%; viability, T/C [30]: 76.8%; viability, T/C [31]: 85.7%; viability, T/C [32]: 89.2%; viability, T/C [33]: 105%
4 | Cn1ncnc1[C@H]1c2n[nH]c(=O)c3cc(F)cc(c23)N[C@@H]1c1ccc(F)cc1 + CC1OCC2(CCN(c3cnc(Sc4ccnc(N)c4Cl)c(N)n3)CC2)C1N | > 100 | > 100 | > 100 | > 100 | > 100 | 81.5 | 81.4 | 91.9 | 88.9 | 81.5 | 101 | 68 | 77.3 | 80.2 | 59.1 | 82.9 | 59.9 | 75.1 | 65.4 | 65.8 | viability, T/C [13]: 87.3%; viability, T/C [14]: 77%; viability, T/C [15]: 56.7%; viability, T/C [18]: 99.4%; viability, T/C [19]: 58.1%; viability, T/C [20]: 82.4%; viability, T/C [21]: 65.5%; viability, T/C [24]: 57.1%; viability, T/C [25]: 49.4%; viability, T/C [26]: 59.5%; viability, T/C [27]: 53.7%; viability, T/C [30]: 62%; viability, T/C [31]: 68.4%; viability, T/C [32]: 84.7%; viability, T/C [33]: 65.7%
5 | CC(C)n1nc(-c2ccc3oc(N)nc3c2)c2c(N)ncnc21 | – | – | – | – | – | – | – | – | – | – | – | – | – | – | – | – | – | – | – | – | viability, T/C (compound 0.001 µM): 97.5% [middle of 5 runs]; IC50 (curve of compound): > 100 nM
6 | O=C(c1cc(Cc2n[nH]c(=O)c3ccccc23)ccc1F)N1CCN(C(=O)C2CC2)CC1 + CNCc1ccccc1-c1csc(C(C)Nc2nc(C)nc3cc(OC)c(OC)cc23)c1 | > 10000 | > 10000 | > 10000 | > 10000 | < 31.6 | – | – | – | – | 78.8 | 93.4 | – | 105 | 105 | 132 | 92.3 | 60.3 | 52.2 | 0.49 | 0.38 | viability, T/C [36]: 86.4%; viability, T/C [37]: 82.6%; viability, T/C [38]: 78.9%; viability, T/C [39]: 115%; viability, T/C [40]: 97.8%; viability, T/C [41]: 75.8%; viability, T/C [42]: 70.9%; viability, T/C [43]: 82.4%; viability, T/C [44]: 77%; viability, T/C [45]: 127%; viability, T/C [46]: 91.8%; viability, T/C [47]: 115%; viability, T/C [48]: 59.5%; viability, T/C [49]: 70.5%; viability, T/C [50]: 76.8%; viability, T/C [51]: 64.6%; viability, T/C [52]: 0.54%; viability, T/C [53]: 0.33%; viability, T/C [54]: 0.44%; viability, T/C [55]: 0.38%
